Measured values: ChEMBL document CHEMBL4627271, “Design, synthesis and evaluation of new 4-arylthiazole-2-amine derivatives as acetylcholinesterase inhibitors” (Bioorg Med Chem Lett, 2020)
Calls of active or inactive are those of the source. The calls are words filed in the database; no cut-off is given here.

Key:
[1] = target: Cholinesterase (Canis lupus familiaris, UniProt P32750); experiment: Inhibition of dog serum BChE using butrylthiocholine iodide as substrate by spectrophotometry based Ellman's method
Cholinesterase, sequence (P32750 whole entry): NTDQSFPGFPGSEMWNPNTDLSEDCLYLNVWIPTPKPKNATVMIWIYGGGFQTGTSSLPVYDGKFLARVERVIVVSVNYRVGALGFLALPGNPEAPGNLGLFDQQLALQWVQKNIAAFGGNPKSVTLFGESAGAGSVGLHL

[2] = target: Acetylcholinesterase (Electrophorus electricus, UniProt O42275); experiment: Inhibition of Electric eel AChE using […] as substrate by spectrophotometry based Ellman's method
Acetylcholinesterase (Electrophorus electricus, UniProt O42275), sequence (O42275 whole entry): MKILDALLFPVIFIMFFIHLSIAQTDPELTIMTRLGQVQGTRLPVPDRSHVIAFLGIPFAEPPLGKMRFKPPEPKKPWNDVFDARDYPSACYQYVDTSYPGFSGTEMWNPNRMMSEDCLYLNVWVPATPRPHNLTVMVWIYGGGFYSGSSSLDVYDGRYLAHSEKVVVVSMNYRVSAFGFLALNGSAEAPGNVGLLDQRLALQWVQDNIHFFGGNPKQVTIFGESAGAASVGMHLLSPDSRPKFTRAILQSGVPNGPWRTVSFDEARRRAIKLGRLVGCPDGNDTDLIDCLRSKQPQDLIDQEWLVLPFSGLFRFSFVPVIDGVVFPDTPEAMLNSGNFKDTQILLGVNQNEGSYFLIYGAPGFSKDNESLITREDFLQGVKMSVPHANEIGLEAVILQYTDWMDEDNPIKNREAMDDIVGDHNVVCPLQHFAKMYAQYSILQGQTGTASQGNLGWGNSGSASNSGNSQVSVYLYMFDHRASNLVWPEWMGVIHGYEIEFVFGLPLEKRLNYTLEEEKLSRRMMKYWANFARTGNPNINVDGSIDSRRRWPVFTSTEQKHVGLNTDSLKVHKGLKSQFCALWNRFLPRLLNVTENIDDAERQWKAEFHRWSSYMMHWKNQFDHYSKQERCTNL

[3] = Selectivity index, ratio of IC50 for dog serum BChE to IC50 for Electric eel AChE
[4] = target: Acetylcholinesterase (Electrophorus electricus) (UniProt O42275); experiment: Competitive inhibition of Electric eel AChE using […] as substrate by spectrophotometry based Lineweaver-Burk plot analysis
Acetylcholinesterase (Electrophorus electricus), sequence (O42275 24-633 limits assumed): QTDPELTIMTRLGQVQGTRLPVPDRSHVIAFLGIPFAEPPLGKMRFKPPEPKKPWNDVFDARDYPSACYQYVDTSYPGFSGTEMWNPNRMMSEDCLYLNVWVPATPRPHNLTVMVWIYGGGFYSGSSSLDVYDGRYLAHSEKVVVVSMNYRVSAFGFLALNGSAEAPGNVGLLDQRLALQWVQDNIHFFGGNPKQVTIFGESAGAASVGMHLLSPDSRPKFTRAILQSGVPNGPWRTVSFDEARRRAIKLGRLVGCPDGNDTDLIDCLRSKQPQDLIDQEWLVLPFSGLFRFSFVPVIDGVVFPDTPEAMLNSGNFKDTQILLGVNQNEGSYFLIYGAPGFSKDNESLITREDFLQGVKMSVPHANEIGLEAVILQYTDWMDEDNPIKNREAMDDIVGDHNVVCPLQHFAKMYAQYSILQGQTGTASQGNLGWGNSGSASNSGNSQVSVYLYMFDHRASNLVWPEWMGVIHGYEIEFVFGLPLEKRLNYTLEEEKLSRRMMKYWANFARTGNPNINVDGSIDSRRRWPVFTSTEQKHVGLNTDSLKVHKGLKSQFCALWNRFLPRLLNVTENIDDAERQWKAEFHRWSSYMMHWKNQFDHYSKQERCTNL

[5] = target: T1, Acetylcholinesterase (Homo sapiens, UniProt P22303); experiment: Inhibition of AChE (unknown origin) using […] as substrate incubated for 15 mins by Ellman's method
T1 sequence (P22303 whole entry): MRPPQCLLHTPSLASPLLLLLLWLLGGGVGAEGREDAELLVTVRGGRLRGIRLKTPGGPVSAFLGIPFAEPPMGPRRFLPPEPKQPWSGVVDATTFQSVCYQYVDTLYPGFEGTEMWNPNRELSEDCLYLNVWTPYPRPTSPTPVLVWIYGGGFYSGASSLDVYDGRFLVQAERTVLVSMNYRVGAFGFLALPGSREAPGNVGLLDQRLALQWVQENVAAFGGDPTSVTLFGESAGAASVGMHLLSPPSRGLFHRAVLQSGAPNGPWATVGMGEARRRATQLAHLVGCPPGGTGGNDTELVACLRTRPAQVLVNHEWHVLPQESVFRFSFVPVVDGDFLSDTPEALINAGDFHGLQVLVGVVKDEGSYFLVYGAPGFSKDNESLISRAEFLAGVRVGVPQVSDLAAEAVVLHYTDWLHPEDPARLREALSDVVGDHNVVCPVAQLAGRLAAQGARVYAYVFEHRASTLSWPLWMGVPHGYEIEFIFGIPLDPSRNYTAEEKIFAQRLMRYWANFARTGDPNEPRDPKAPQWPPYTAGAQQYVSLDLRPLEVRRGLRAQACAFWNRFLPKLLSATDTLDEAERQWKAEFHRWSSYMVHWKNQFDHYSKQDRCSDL

[6] = target: T1, Acetylcholinesterase; experiment: Inhibition of AChE (unknown origin)

SMILES | IC50 [1] | IC50 [2] | further results
COc1ccc(CC(=O)Nc2ncc(-c3ccc(OCCCCSc4ccncc4)cc3)s2)cc1OC | 14.3 µM | 5.5 µM | –
COc1ccc(CC(=O)Nc2ncc(-c3ccc(OCCCCN4CCCC4)cc3)s2)cc1OC | 10.2 µM | 0.66 µM | Ratio IC50 [3]: 16; inhibition [4]: Active
COc1ccc(CC(=O)Nc2ncc(-c3ccc(OCCCCN4CCCCC4)cc3)s2)cc1OC | 49.2 µM | 0.95 µM | Ratio IC50 [3]: 52
COc1ccc(CC(=O)Nc2ncc(-c3ccc(OCCCCCN4CCCC4)cc3)s2)cc1OC | 9.85 µM | 3.34 µM | –
CCN(C)C(=O)Oc1cccc([C@H](C)N(C)C)c1 [RIVASTIGMINE] | 6.27 µM | – | –
C/C=C1\[C@H]2C=C(C)C[C@]1(N)c1ccc(=O)[nH]c1C2 [HUPERZINE A] | > 10000 µM | – | –
COc1ccc(CCC(=O)Nc2nc(-c3cc4ccccc4oc3=O)cs2)cc1OC | – | – | IC50 [5]: 0.74 µM
COc1cc(CC(=O)Nc2ncc(-c3ccc(OCCCN4CCCC4)cc3)s2)cc(OC)c1OC | 17.3 µM | 7.84 µM | –
COc1ccc(CC(=O)Nc2ncc(-c3ccc(OCCCCN4CCN(Cc5ccccc5)CC4)cc3)s2)cc1OC | 41 µM | 5.75 µM | –
COc1ccc(CC(=O)Nc2ncc(-c3ccc(OCCCN4CCCC4)cc3)s2)cc1 | 9.01 µM | 37.3 µM | –
COc1ccc(C(=O)Nc2ncc(-c3ccc(OCCCN4CCCC4)cc3)s2)cc1OC | 8.1 µM | 39.3 µM | –
COc1ccc(CC(=O)Nc2ncc(-c3ccc(OCCN4CCCC4)cc3)s2)cc1OC | 23.9 µM | 6.31 µM | –
COc1ccc(-c2csc(NC(=O)CCN3CCCC3)n2)cc1 | – | – | IC50 [6]: 0.51 µM
COc1ccc(CC(=O)Nc2ncc(-c3ccc(OCCCCNC4CCN(Cc5ccccc5)CC4)cc3)s2)cc1OC | 7.23 µM | 4.24 µM | –
COc1ccc(CC(=O)Nc2ncc(-c3ccc(OCCCN4CCCC4)cc3)s2)cc1OC | 6.89 µM | 6.51 µM | –
